Results on one compound are retold here after patent US10772909B2, “System and method for insulin-mimetic of cartilage, bone, or osteochondral repair and piezoelectric composite scaffold” (New Jersey Institute of Technology, priority 2016, dated 2020).

The test system of one experiment is collagen type II. The experiment can be described thus: Collagen type II ELISA. The format is cell-based, human. The conditions noted are these: day 28. As to the method: (§1) Chondrogenesis Culture. Cryopreserved MSCs were thawed and expanded in GM until 70-80% confluent. Cells were trypsininzed and then seeded on 6 mm diameter scaffold disks at 1.76×10^5 cells/cm^2 and cultured for 28 days in GM, chondrogenic induction medium (CCM), or CCM without insulin, according to previously published methods. CCM consisted of DMEM high glucose containing 4 mM L-glutamine (Invitrogen, Grand Island, N.Y., USA), 0.1 μM dexamethasone (Sigma-Aldrich), 0.17 mM ascorbic acid-2-phosphate (Wako Chemicals, Richmond, Va., USA), 1% ITS+(6.25 µg/mL insulin, 6.25 µg/mL transferrin, 6.25 ng/mL selenous acid, 5.35 μg/ml linoleic acid and 1.25 mg of bovine serum albumin) Premix Culture Supplement (Corning, Corning, N.Y., USA), 1× antibiotic-antimycotic, 1 mM sodium pyruvate (Sigma-Aldrich), 0.35 mM proline (Sigma-Aldrich), and 10 ng/mL recombinant human transforming growth factor-beta3 (TGF-β3, ProSpec, Israel). CCM without insulin consisted of CCM where the 1% ITS+Premix Culture Supplement was substituted with 1% stock solution (6.25 μg/ml transferrin and 6.25 ng/ml selenous acid, 5.35 μg/ml lionleic acid (Sigma-Aldrich) and 1.25 mg of bovine serum albumin (Fisher Scientific). Na2WO4 was added to all media leading to final Na2WO4 concentrations of 0, 0.01, 0.1 and 1 mM. Samples were harvested and analyzed for sulfated glycosaminoglycans (sGAG), cell number and gene expression at day 14 and 28 and for collagen type II and immunostaining at day 28.
Collagen type II production was quantified by enzyme-linked immunosorbent assay (ELISA) using a collagen type II detection kit (Chondrex Inc. Redmond, Wash., USA). The ELISA was conducted following the manufacturer's instructions. Briefly, samples (n=4 per group) were harvested at day 28 and washed with PBS. Collagen was digested by adding pepsin solution (0.1 mg/ml in 0.05 M acetic acid) at 4 C° for two days with gentle mixing. The digested samples were centrifuged for 3 minutes and supernatants were collected. Pancreatic elastase was added to the samples and incubated overnight at 4° C. Supernatants were then collected. The ELISA plate which was coated with collagen type II was prepared as described by the manufacturer and the absorbance at 490 nm was measured using a microplate spectrophotometer (Emax, Molecular Devices). The collagen type II production was determined relative to the standard curve.
In general terms: ELISA stands for enzyme-linked immunosorbent assay.

Experiment [1] is described as follows: Sodium tungstate in the scaffold: cell and tissue growth, cytocompatibility. In kind it is cell-based. The conditions noted are these: 0.01-5 weight (wt.) % sodium tungstate in the scaffold.
A further experiment relates to Human MSCs. The experiment can be described thus: Chondrogenesis culture: sGAG production (Blyscan). In kind it is cell-based. As to the method: as §1
Production of sGAG and cell number were determined. Samples were digested using papain (Sigma-Aldrich, Mo., USA) buffer overnight at 65 C. ° following manufacturer's protocol. The sGAG assay is used to measure the total sulfated proteoglycan content using Blyscan sGAG Assay Kit (Biocolor, UK). Cell lysate of samples (n=4 per group) and color reagent were combined in transparent 96-well plate and the absorbance at 656 nm was measured using a microplate spectrophotometer (EMax, Molecular Devices, Melville, N.Y., USA). sGAG concentration was determined relative to chondroitin sulfate standard curve. PicoGreen® ds DNA assay (Life Technologies) was used to determine the cell number. MSCs of known cell number were used as standards. Standards were prepared by lysing the cells using papain buffer. The cell lysate of samples and standards (n=4 per group) was mixed with an equal volume of Pico Green reagent. Fluorescence intensity was measured with a microplate reader ((FLX800, Biotek Instruments, Vt., USA)) at 480 nm excitation and 520 nm emission. A standard curve of known cell number was used to determine the sample cell number. GAG production was normalized to cell number.

Setting [2] is: 1 mM Na2WO4, CCM without insulin, day 28.

Structures are written as SMILES.

For the compound `[Na+].[Na+].[O]=[W](=[O])([O-])[O-]` [Na2WO4, sodium tungstate], in the experiment with collagen type II (0.01 mM Na2WO4, CCM, p<0.001), the “collagen type II production vs all other groups” value is listed as “highest collagen type II”. Also, in the experiment on collagen type II (0.01 mM Na2WO4, GM, p<0.05), the “collagen type II production vs 0 mM group” value is “significantly higher collagen type II”. Moreover, the “collagen type II production vs 0 mM and 1 mM” value in the experiment with collagen type II (0.1 mM Na2WO4, CCM, p<0.001) is on record as “significantly higher collagen type II production”. The “collagen type II production” value in the experiment with collagen type II (1 mM Na2WO4, CCM, p<0.001) was “lowest”; with collagen type II (CCM without insulin groups), “not detected”. The “cell and tissue growth and cytocompatibility” value in experiment [1] is “promoted excellent cell and tissue growth results and cytocompatibility results”. For the same compound, the “sGAG production, change between days 14 and 28” value in the experiment on Human MSCs (0.01 mM Na2WO4, CCM) is given as “significant increase in sGAG production”. In addition, the “sGAG production vs 0 mM group” value in the experiment with Human MSCs (0.01 mM Na2WO4, CCM without insulin) is “higher than 0 mM group in CCM without insulin but not significantly”; in the experiment with Human MSCs (0.1 mM Na2WO4, CCM without insulin), “higher than 0 mM group in CCM without insulin but not significantly”. In the experiment on Human MSCs (0.01 mM Na2WO4, CCM, day 28, p<0.005), the “sGAG production vs all other groups” value is recorded as “higher sGAG production than all other groups”. Further, the “normalized sGAG to cell number vs 0 and 1 mM groups” value with Human MSCs (0.01 mM Na2WO4, CCM, day 28, p<0.05) was “significantly higher”. Further, in the experiment on Human MSCs (0.1 mM Na2WO4, GM, day 14), the “sGAG production vs GM alone” value was “significantly higher”. In the experiment with Human MSCs (setting [2]), the “normalized sGAG to cell number vs 0.01 mM” value was “significantly lower normalized sGAG to cell number”. Also, in the experiment with Human MSCs (setting [2]), the “sGAG vs all other groups” value is on record as “significantly lower”.
